Measured values reported in patent publication US20260158177A1, “COMPOUNDS SPECIFIC TO GRANZYME B AND USES THEREOF” (CYTOSITE BIOPHARMA INC., priority 2021, published 2026).
Numbered stars: 1 amine (or outer) side, 2 acyl side, 3 side chain; on linkers, the order of the positions; unused ones are H or OH. Square brackets hold non-standard residues; d marks the D form. Peptide text beside a SMILES is read from it. * marks the point of attachment. X2 = O=C1CN2CCN(CCN(CC3CCN(CC(=O)*)CC3)CC2)CC(=O)[O][Al]([F])[O]1; Haic = O=C1[C@@H](N[*:1])CCc2cccc3c2N1[C@H](C(=O)[*:2])C3; NH(5-HO-2-oxo-oxolan-4-yl) = O=C1CC(N*)C(O)O1

Target: T1, human granzyme B (Homo sapiens, UniProt P10144)
T1 construct: from tissue; host or cells: human lymphocytes
Assay: Competitive binding assay of human granzyme B with Compound ^18F-21-Al radioligand
Conditions: competition with 20 nM Compound ^18F-21-Al, human lymphocyte GZB, 37° C., 90 minutes
Method: Purpose: To perform competitive binding assays with human granzyme B using Compound ^18F-21-Al to determine IC50 values of potential granzyme B ligands
Initial Plate Preparation (including total binding and non-specific binding): • 1. 78 μL of reaction buffer, as described above, is added to each well in a 96 well plate • 2. For wells used to examine total binding (defined as the binding of the radioligand in the absence of competitors), 2 μL of DMSO is added to give 1% final DMSO concentration for all wells • 3. For wells used to examine non-specific binding (defined as the binding of the radioligand in the presence of 10 μM 21), 2 μL of 1 mM Compound 21 is added to give a final concentration of 10 μM
• 1. Granzyme B (GZB, human lymphocyte) is diluted to 0.5 μg/mL using reaction buffer as described above • 2. 100 μL of 0.5 μg/mL diluted human GzB is added to each well, giving 50 ng per well and a final concentration of 0.25 μg/mL
• 1. DMSO or water is added to the respective compound vial to make 1 mM compound stock solution • 2. 1 mM compound stock solution is serially diluted by ½ log (3.16 fold) by adding 18.5 μL of compound stock to 40 μL of DMSO, mixing by pipetting up and down, and transferring 18.5 μL of the mixture to 40 μL of DMSO. This process is repeated to create 10 dilution points for test compounds. • 3. For wells used to examine ligand binding competition, 2 μL of each dilution is dispensed into the 96 well plates prepared as described above, giving a further dilution of 1/100.
• 1. 200 nM of Compound ^18F-21-Al (10× radioligand stock) is prepared in reaction buffer, aiming for approximately 2 million CPM per 20 μL of solution (input). • 2. 20 μL of radioligand stock is dispensed into each well to give a final concentration per well of 20 nM.
• 1. All 96 wells should have a final volume of 200 μL, and the assay plates are incubated at 37° C. for 90 minutes. • 2. All samples from the assay plates are transferred to MultiScreenHTS FB plates that have been presoaked in PBS buffer, pH 7.4, and filtered using a vacuum manifold. An additional 150 μL of PBS buffer is added to each well in the assay plates and combined to ensure transfer of any remaining samples • 3. MultiScreenHTS FB plates are washed 3× with 150 μL of PBS buffer. • 4. All filters are separated and transferred to individual tubes using Multiscreen punch tips and the Millipore multiple punch apparatus • 5. The sample set is analyzed using the Wizard 2480 automatic gamma-counter [Perkin Elmer] through a [^18F]-specific profile. Values are reported as decay-corrected counts per minute (CPM). • 6. Resulting CPM values are normalized and converted to % inhibition by the following equation:
[formula] • *the total bound fraction is typically less than 10% of the added radioligand under such assay conditions. • Resulting % inhibition values were plotted using the software GraphPad Prism 8.4.3 using the One site—Fit log IC50 equation to determine the IC50 value for each ligand.
[formula] • Y=% Inhibition • X=Log concentration of the cold competing ligand (M) • A=minimum Y (0%) • B=maximum Y (100%) • Log IC50=Log concentration of cold competing ligand (M) at half-way between minimum and maximum Y

T1 sequence (P10144 21-247): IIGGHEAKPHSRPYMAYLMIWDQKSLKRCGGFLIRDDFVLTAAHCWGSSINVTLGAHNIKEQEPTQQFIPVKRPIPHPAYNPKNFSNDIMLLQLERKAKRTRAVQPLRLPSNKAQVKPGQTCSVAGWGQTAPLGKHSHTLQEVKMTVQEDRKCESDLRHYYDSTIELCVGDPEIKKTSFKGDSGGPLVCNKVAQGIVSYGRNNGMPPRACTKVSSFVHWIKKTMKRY

SMILES	IC50 [nM]
CC[C@H](C)[C@H](NC(=O)CCNC(=O)CCNC(=O)CN(CC(=O)O)C(=O)CN1CCC(CN2CCN3CCN(CC2)CC(=O)[O][Al]([F])[O]C(=O)C3)CC1)C(=O)N[C@H]1CCc2cccc3c2N(C1=O)[C@H](C(=O)NC1CC(=O)OC1O)C3 (stereo partly drawn) [Compound 5-Al, 2,2′-(7-((1-((15S,16S)-3-(carboxymethyl)-15-(((3S,6S)-6-((2-hydroxy-5-oxotetrahydrofuran-3-yl)carbamoyl)-4-oxo-1,2,3,4,6,7-hexahydroazepino[3,2,1-hi]indol-3-yl)carbamoyl)-16-methyl-2,5,9,13-tetraoxo-3,6,10,14-tetraazaoctadecyl)piperidin-4-yl)methyl)-1,4,7-triazonane-1,4-diyl)diacetic acid, aluminum fluoride complex (1:1)]	5.7
CC[C@H](C)[C@H](NC(=O)CCNC(=O)CC[C@H](NC(=O)CN1CCC(CN2CCN3CCN(CC2)CC(=O)[O][Al]([F])[O]C(=O)C3)CC1)C(=O)O)C(=O)N[C@H]1CCc2cccc3c2N(C1=O)[C@H](C(=O)NC1CC(=O)OC1O)C3 (stereo partly drawn) [Compound 6-Al, 2,2′-(7-((1-(2-(((1S)-1-carboxy-4-((3-(((2S,3S)-1-(((3S,6S)-6-((2-hydroxy-5-oxotetrahydrofuran-3-yl)carbamoyl)-4-oxo-1,2,3,4,6,7-hexahydroazepino[3,2,1-hi]indol-3-yl)amino)-3-methyl-1-oxopentan-2-yl)amino)-3-oxopropyl)amino)-4-oxobutyl)amino)-2-oxoethyl)piperidin-4-yl)methyl)-1,4,7-triazonane-1,4-diyl)diacetic acid, aluminum fluoride complex (1:1)]	4.5
CC[C@H](C)[C@H](NC(=O)CCNC(=O)CCNC(=O)CN(CC(=O)O)C(=O)CN1CCN(C(=O)CN2CCN3CCN(CC2)CC(=O)[O][Al]([F])[O]C(=O)C3)CC1)C(=O)N[C@H]1CCc2cccc3c2N(C1=O)[C@H](C(=O)NC1CC(=O)OC1O)C3 (stereo partly drawn) [Compound 13-Al, 2,2′-(7-(2-(4-((15S,16S)-3-(carboxymethyl)-15-(((3S,6S)-6-((2-hydroxy-5-oxotetrahydrofuran-3-yl)carbamoyl)-4-oxo-1,2,3,4,6,7-hexahydroazepino[3,2,1-hi]indol-3-yl)carbamoyl)-16-methyl-2,5,9,13-tetraoxo-3,6,10,14-tetraazaoctadecyl)piperazin-1-yl)-2-oxoethyl)-1,4,7-triazonane-1,4-diyl)diacetic acid, aluminum fluoride complex (1:1)]	4.2
CC[C@H](C)[C@H](NC(=O)CCNC(=O)CCNC(=O)[C@H](CC(C(=O)O)C(=O)O)NC(=O)CN1CCN(C(=O)CN2CCN3CCN(CC2)CC(=O)[O][Al]([F])[O]C(=O)C3)CC1)C(=O)N[C@H]1CCc2cccc3c2N(C1=O)[C@H](C(=O)NC1CC(=O)OC1O)C3 (stereo partly drawn) [Compound 15-Al, 2-((2S)-2-(2-(4-(2-(4,7-bis(carboxymethyl)-1,4,7-triazonan-1-yl)acetyl)piperazin-1-yl)acetamido)-3-((3-((3-(((2S,3S)-1-(((3S,6S)-6-((2-hydroxy-5-oxotetrahydrofuran-3-yl)carbamoyl)-4-oxo-1,2,3,4,6,7-hexahydroazepino[3,2,1-hi]indol-3-yl)amino)-3-methyl-1-oxopentan-2-yl)amino)-3-oxopropyl)amino)-3-oxopropyl)amino)-3-oxopropyl) malonic acid, aluminum fluoride complex (1:1)]	2.5
CC[C@H](C)[C@H](NC(=O)CC[C@@H](NC(=O)CN1CCN(C(=O)CN2CCN3CCN(CC2)CC(=O)[O][Al]([F])[O]C(=O)C3)CC1)C(=O)O)C(=O)N[C@H]1CCc2cccc3c2N(C1=O)[C@H](C(=O)NC1CC(=O)OC1O)C3 (stereo partly drawn) [Compound 14-Al, 2,2′-(7-(2-(4-(2-(((1R)-1-carboxy-4-(((2S,3S)-1-(((3S,6S)-6-((2-hydroxy-5-oxotetrahydrofuran-3-yl)carbamoyl)-4-oxo-1,2,3,4,6,7-hexahydroazepino[3,2,1-hi]indol-3-yl)amino)-3-methyl-1-oxopentan-2-yl)amino)-4-oxobutyl)amino)-2-oxoethyl)piperazin-1-yl)-2-oxoethyl)-1,4,7-triazonane-1,4-diyl)diacetic acid, aluminum fluoride complex (1:1)]	2.7
CC[C@H](C)[C@H](NC(=O)CNC(=O)CNC(=O)[C@H](CCC(=O)O)NC(=O)CN1CCC(CN2CCN3CCN(CC2)CC(=O)[O][Al]([F])[O]C(=O)C3)CC1)C(=O)N[C@H]1CCc2cccc3c2N(C1=O)[C@H](C(=O)NC1CC(=O)OC1O)C3 (stereo partly drawn) [Compound 2-Al, 2,2′-(7-((1-((4S,13S,14S)-4-(2-carboxyethyl)-13-(((3S,6S)-6-((2-hydroxy-5-oxotetrahydrofuran-3-yl)carbamoyl)-4-oxo-1,2,3,4,6,7-hexahydroazepino[3,2,1-hi]indol-3-yl)carbamoyl)-14-methyl-2,5,8,11-tetraoxo-3,6,9,12-tetraazahexadecyl)piperidin-4-yl)methyl)-1,4,7-triazonane-1,4-diyl)diacetic acid aluminum fluoride complex (1:1)] (X2-EGGI[Haic]-{NH(5-HO-2-oxo-oxolan-4-yl)})	7.5
CC[C@H](C)[C@H](NC(=O)CC[C@H](NC(=O)CN1CCN(C(=O)CN2CCN3CCN(CC2)CC(=O)[O][Al]([F])[O]C(=O)C3)CC1)C(=O)O)C(=O)N[C@H]1CCc2cccc3c2N(C1=O)[C@H](C(=O)NC1CC(=O)OC1O)C3 (stereo partly drawn) [Compound 17-Al, 2,2′-(7-(2-(4-(2-(((1S)-1-carboxy-4-(((2S,3S)-1-(((3S,6S)-6-((2-hydroxy-5-oxotetrahydrofuran-3-yl)carbamoyl)-4-oxo-1,2,3,4,6,7-hexahydroazepino[3,2,1-hi]indol-3-yl)amino)-3-methyl-1-oxopentan-2-yl)amino)-4-oxobutyl)amino)-2-oxoethyl)piperazin-1-yl)-2-oxoethyl)-1,4,7-triazonane-1,4-diyl)diacetic acid, aluminum fluoride complex (1:1)]	2.7
CC[C@H](C)[C@H](NC(=O)CCNC(=O)CCNC(=O)[C@@H](CCC(=O)O)NC(=O)CN1CCN(C(=O)CN2CCN3CCN(CC2)CC(=O)[O][Al]([F])[O]C(=O)C3)CC1)C(=O)N[C@H]1CCc2cccc3c2N(C1=O)[C@H](C(=O)NC1CC(=O)OC1O)C3 (stereo partly drawn) [Compound 12-Al, 2,2′-(7-(2-(4-((4R,15S,16S)-4-(2-carboxyethyl)-15-(((3S,6S)-6-((2-hydroxy-5-oxotetrahydrofuran-3-yl)carbamoyl)-4-oxo-1,2,3,4,6,7-hexahydroazepino[3,2,1-hi]indol-3-yl)carbamoyl)-16-methyl-2,5,9,13-tetraoxo-3,6,10,14-tetraazaoctadecyl)piperazin-1-yl)-2-oxoethyl)-1,4,7-triazonane-1,4-diyl)diacetic acid, aluminum fluoride complex (1:1)]	4.2
CC[C@H](C)[C@H](NC(=O)COCCNC(=O)[C@@H](CCC(=O)O)NC(=O)[C@@H](CCC(=O)O)NC(=O)CN1CCN(C(=O)CN2CCN3CCN(CC2)CC(=O)[O][Al]([F])[O]C(=O)C3)CC1)C(=O)N[C@H]1CCc2cccc3c2N(C1=O)[C@H](C(=O)NC1CC(=O)OC1O)C3 (stereo partly drawn) [Compound 10-Al, 2,2′-(7-(2-(4-((4R,7R,16S,17S)-4,7-bis(2-carboxyethyl)-16-(((3S,6S)-6-((2-hydroxy-5-oxotetrahydrofuran-3-yl)carbamoyl)-4-oxo-1,2,3,4,6,7-hexahydroazepino[3,2,1-hi]indol-3-yl)carbamoyl)-17-methyl-2,5,8,14-tetraoxo-12-oxa-3,6,9,15-tetraazanonadecyl)piperazin-1-yl)-2-oxoethyl)-1,4,7-triazonane-1,4-diyl)diacetic acid, aluminum fluoride complex (1:1)]	3.6
